Laboratory results reported in US8158850B2, “Method to enhance yield and purity of hybrid crops” (priority 2007, dated 2012).
Several values for one entry are separate records, joined by “and”; a condition that tells them apart may be missing. Identical values can stand only once.

Experiments:
Type in all cases: in vivo, corn (Zea mays)
[1] = tested on: LH198DMSRR2 control (CMS germplasm with glyphosate tolerance); assay: Percent anther extrusion (AE %) at silk emergence after glyphosate treatment, field split plot test
Excerpt: (§1) Corn plants transformed with the DNA construct are produced and unique events that have the desired glyphosate tolerance phenotype are selected by treatment with glyphosate a various growth stages and at various rates of glyphosate. Optimal tassel and anther sensitivity to glyphosate can be determined by treatment with an effective dose of glyphosate during corn plant growth and then measuring the pollen shed or anther extrusion. Rapidly maturing corn inbred lines may have early tassel development and glyphosate treatments and rates can be adjusted as needed to produce male sterility in these inbred lines. Transgenic events for the glyphosate hybrid system were designated as event GHS1, GHS2 and GHS3, and selected by various glyphosate treatments to determine the rates and timing of glyphosate that provide the desired level of male sterility as measured by percent anther extrusion. Glyphosate was applied to a field containing the events using the following parameters: • Nozzle: Tee Jet Air Induction (AI) 110015-VS broadcast (green plus green adaptor) spaced on 30″ centers • GPA: 10-12 gallons per acre (GPA) • PSI: 30-35 pounds per square inch • Speed: 2-2.5 MPH • Nozzle Height: 16-18″ above “cup” of the whorl • Useful Conversions:
(§2) • Roundup Ultra®=3 lb acid equivalent (ae)/gal or 32 oz=0.75 lb ae/[…] • Roundup WeatherMax®—22 oz/acre=0.75 lb ae/acre • Nozzle calibration: Determine GPM (gallon per minute) output—Select nozzles and set PSI as specified above. Insure screens are all the same style and size. Collect output (30 sec minimum) of every nozzle at engine operating RPM equivalent to field conditions. Replicate 3 times for consistency and replace any nozzle with greater than +5% variation compared to other nozzles. Repeat until all nozzles are consistent. • Tractor speed—Determine sprayer speed in mph at above spray RPM. Measure off known distance (i.e. 100′) and measure 3 times for consistency. • Calibration of application equipment—The following formula was used to calculate spray output in GPA: GPA=5940×GPM (per nozzle), MPH×W; wherein W=Nozzle spacing (in inches) for broadcast spraying.
(§3) Transgenic events GHS1, GHS2, and GHS3 were treated with one or two applications of glyphosate (Roundup WeatherMax®) over the corn development stages V8-V12 (vegetative 8 leaf—vegetative 12 leaf). These development stages also correlate with pollen development in most inbred corn varieties. In this example, the transgenic events are in an LH198 germplasm crossed to LH287. The fertility score is a measure of the percent risk of anther extrusion (AE) observed at the time of silk emergence from the corn ear. The three events and a LH198DMSRR2 control (CMS germplasm with glyphosate tolerance) were treated with six glyphosate treatments (Table 4). The glyphosate treatments are single applications of 0.75 lb ae/ac at V8 stage (Trt 1), 0.75 lb ae/ac at V10 stage (Trt 2) and 0.54 lb ae/ac at V12 stage (Trt 3), and double applications of 0.75 lb ae/ac at V8 followed by 0.54 lb ae/ac at V12 (Trt 4), 0.75 lb ae/ac at V10 followed by 0.54 lb ae/ac at V12 (Trt 5), and 0.75 lb ae/ac at V8 followed by 0.75 lb ae/ac at V10 (Trt 6). The test was set up as a split plot design with 2 row plots and the glyphosate treatments applied in strips over all of the replications. FIG. 1 illustrates AE % as averaged across all spray treatments across each test plot and event.

[2] = tested on: transgenic corn event GHS2 (LH198 germplasm crossed to LH287); assay: as above; settings: Event GHS-2
Excerpt: as §1, §2, §3

[3] = tested on: transgenic corn event GHS3 (LH198 germplasm crossed to LH287); assay: as above; settings: Event GHS-3
Excerpt: as §1, §2, §3

[4] = tested on: transgenic corn event GHS1 (LH198 germplasm crossed to LH287); assay: as above; settings: Event GHS-1
Excerpt: as §1, §2, §3

[5] = tested on: hybrid seed production field, GHS1 or GHS2 female parent with MON88017 or nk603 male parent; assay: Yield of the hybrid seed harvested from female rows of glyphosate-treated GHS fields; settings: for average yield of hybrid seed: GHS1 or GHS2 female, glyphosate V8 and V10 at 22 oz/ac, CMS-nk603 comparator yield 29.05 kg; for Average Wt (kg), yield of the hybrid seed: glyphosate treated V8-V10; for Total wt (KG), yield of the hybrid seed: glyphosate treated V8-V10 (22 oz/ac), seed harvested from female rows
Experimental: The yield of hybrid seed is important for maintaining profitability in hybrid seed production systems. […] GHS1 and GHS2 are used as the female parent in a hybrid seed production field with MON88017 or nk603 as the male parent. The GHS fields were treated with glyphosate (V8 and V10 at 22 oz/ac) and the seed harvested from the female rows. […] The average yield is 29.72 kilograms (kg) and 33.39 kg, respectively compared to the CMS-nk603 yield of 29.05 kg.

[6] = Trt 4: 0.75 lb ae/ac at V8 followed by 0.54 lb ae/ac at V12
[7] = Trt 5: 0.75 lb ae/ac at V10 followed by 0.54 lb ae/ac at V12
[8] = Trt 6: 0.75 lb ae/ac at V8 followed by 0.75 lb ae/ac at V10

O=C(O)CNCP(=O)(O)O [glyphosate, n-phosphonomethylglycine]
AE (%) ([1]; Trt 1: 0.75 lb ae/ac at V8): 0.1%
AE (%) ([1]; Trt 2: 0.75 lb ae/ac at V10): 0.1%
AE (%) ([1]; Trt 3: 0.54 lb ae/ac at V12): 0.1%
AE (%) [1, 6]: ~0.3%
AE (%) [1, 7]: ~0.3%
AE (%) [1, 8]: 0.0%
AE (%) ([2]; Trt 1: 0.75 lb ae/ac at V8): 0.4%
AE (%) ([2]; Trt 2: 0.75 lb ae/ac at V10): 0.0%
AE (%) ([2]; Trt 3: 0.54 lb ae/ac at V12): ~3.0%
AE (%) [2, 6]: 0.0%
AE (%) [2, 7]: 0.0%
AE (%) [2, 8]: 0.0%
AE (%) ([3]; Trt 1: 0.75 lb ae/ac at V8): ~5.9%
AE (%) ([3]; Trt 2: 0.75 lb ae/ac at V10): 0.1%
AE (%) [3, 6]: 0.0%
AE (%) [3, 7]: 0.0%
AE (%) [3, 8]: 0.0%
AE (%) ([4]; Trt 2: 0.75 lb ae/ac at V10): 0.0%
AE (%) ([4]; Trt 3: 0.54 lb ae/ac at V12): ~12.1%
AE (%) [4, 6]: 0.0%
AE (%) [4, 7]: 0.0%
AE (%) [4, 8]: 0.0%
average yield of hybrid seed ([5]; MON88017 male): 29.72 kg
average yield of hybrid seed ([5]; nk603 male): 33.39 kg
Average Wt (kg), yield of the hybrid seed ([5]; female GHS1, average over MON88017 and NK603 male parents): 29.72 kg
Total wt (KG), yield of the hybrid seed ([5]; female GHS1, male MON88017): 25.9 kg and 31.5 kg
Total wt (KG), yield of the hybrid seed ([5]; female GHS1, male NK603): 32.16 kg and 29.35 kg
Average Wt (kg), yield of the hybrid seed ([5]; female GHS2, average over MON88017 and NK603 male parents): 33.39 kg
Total wt (KG), yield of the hybrid seed ([5]; female GHS2, male MON88017): 27.5 kg and 35.74 kg
Total wt (KG), yield of the hybrid seed ([5]; female GHS2, male NK603): 38.67 kg and 31.66 kg
